The target in assay [1] is T1, JMJD3 (Homo sapiens, UniProt O15054).
T1 construct: purchased BPS Bioscience 50115
In words: JMJD3 in vitro enzyme inhibition assay (AlphaScreen). Format: biochemical. Particulars: Table 5; 1 nM JMJD3, H3K27me3-biotin labeled peptide. From the text:
(§1) This assay determines the ability of a test compound to inhibit Jarid1B, JMJD2C and JMJD3 demethylase activity. Baculovirus expressed Jarid1B (GenBank Accession #NM-006618, AA 2-751) was purchased from BPS Bioscience (Cat #50121) or custom made by MolecularThroughput. Baculovirus expressed JMJD2C (GenBank Accession #BC143571, AA 2-372) was purchased from BPS Bioscience (Cat#50105). Baculovirus expressed JMJD3 (GenBank Accession #NM-001080424, AA1043-end) was purchased from BPS Bioscience (Cat#50115).
The ability of test compounds to inhibit the activity of JMJD3 was determined in 384-well plate format under the following reaction conditions: 1 nM JMJD3, 250 nM H3K27me3-biotin labeled peptide (Anaspec cat # 64367), 1 µM alpha-ketoglutaric acid in assay buffer of 50 mM HEPES, pH7.3, 0.005% Brij35, 0.5 mM TCEP, 0.2 mg/ml BSA, 50 µM sodium L-ascorbate, 5 µM ammonium iron(II) sulfate. Reaction product is determined quantitatively by AlphaScreen detection after the addition of detection reagents anti-H3K27me1 antibody, 5 µg/ml AlphaScreen® Streptavidin-coated Donor beads, and 5 µg/ml AlphaScreen® Protein A Acceptor beads in 50 mM HEPES, pH7.3, 10 mM NaCl, 0.005% Brij35, 10 mM EDTA, 2 mg/ml BSA.
The assay reaction was initiated by the following: 3 µl of the mixture of 750 nM H3K27me3-biotin labeled peptide and 3 µM alpha-ketoglutaric acid with 3 µl of 11-point serial diluted inhibitor in 3% DMSO are added to each well of 384 well Proxiplate (Perkin Elmer), followed by the addition of 3 µl of 3 nM JMJD3 to initiate the reaction. The reaction mixture is incubated at room temperature for 20 minutes, and terminated by the addition of 3 µl of appropriate dilution of anti H3K27me1 antibody in 50 mM HEPES, pH7.3, 10 mM NaCl, 0.005% Brij35, 10 mM EDTA, 2 mg/ml BSA. Plates will then incubated at room temperature for 1 hour, followed by addition of 3 µl of 25 µg/ml AlphaScreen® Streptavidin-coated Donor beads and AlphaScreen® Protein A Acceptor beads in 50 mM HEPES, pH7.3, 10 mM NaCl, 0.005% Brij35, 10 mM EDTA, 2 mg/ml BSA. Plates will then be read by EnVision Multilabel Reader in AlphaScreen mode after minimum 2 hour incubation at room temperature. The AlphaScreen signal for each well is used to determine inhibition constant (IC50).

In assay [2] the target is T2, Jarid1B (Homo sapiens, UniProt Q9UGL1).
T2 construct: purchased BPS Bioscience (or custom made by MolecularThroughput) 50121
T2 sequence (Q9UGL1 2-751): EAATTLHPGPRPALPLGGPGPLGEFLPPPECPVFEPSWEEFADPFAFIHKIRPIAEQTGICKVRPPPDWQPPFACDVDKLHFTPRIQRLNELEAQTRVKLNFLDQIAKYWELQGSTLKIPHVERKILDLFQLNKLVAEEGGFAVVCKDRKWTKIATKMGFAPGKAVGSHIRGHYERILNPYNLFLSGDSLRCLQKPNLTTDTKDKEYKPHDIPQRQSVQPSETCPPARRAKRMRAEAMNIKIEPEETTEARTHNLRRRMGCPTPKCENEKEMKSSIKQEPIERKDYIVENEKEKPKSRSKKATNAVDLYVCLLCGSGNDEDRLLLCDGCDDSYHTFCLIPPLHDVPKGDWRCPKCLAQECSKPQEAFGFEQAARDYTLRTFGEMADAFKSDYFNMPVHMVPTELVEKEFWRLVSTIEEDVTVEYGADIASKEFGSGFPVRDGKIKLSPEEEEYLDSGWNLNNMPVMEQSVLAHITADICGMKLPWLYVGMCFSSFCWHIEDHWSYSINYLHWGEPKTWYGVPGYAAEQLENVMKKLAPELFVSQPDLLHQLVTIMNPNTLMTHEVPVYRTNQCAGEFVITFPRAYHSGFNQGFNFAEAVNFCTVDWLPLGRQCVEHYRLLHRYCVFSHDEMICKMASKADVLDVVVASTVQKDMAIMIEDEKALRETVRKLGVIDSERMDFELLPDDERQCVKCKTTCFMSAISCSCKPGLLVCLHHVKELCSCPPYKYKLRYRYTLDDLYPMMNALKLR
In words: Jarid1B in vitro enzyme inhibition assay (TR-FRET). Type of assay: biochemical. Particulars: Table 5; 0.8 nM Jarid1B, H3K4me3-biotin labeled peptide; read-out: JARID1B IC5.
Excerpt: as §1
The ability of test compounds to inhibit the activity of Jarid1B was determined in 384-well plate format under the following reaction conditions: 0.8 nM Jarid1B, 300 nM H3K4me3-biotin labeled peptide (Anaspec cat #64357), 2 µM alpha-ketoglutaric acid in assay buffer of 50 mM HEPES, pH7.3, 0.005% Brij35, 0.5 mM TCEP, 0.2 mg/ml BSA, 50 µM sodium L-ascorbate, and 2 µM ammonium iron(II) sulfate. Reaction product was determined quantitatively by TR-FRET after the addition of detection reagent Phycolink Streptavidin-allophycocyanin (Prozyme) and Europium-anti-mono-or di-methylated histone H3 lysine 4 (H3K4me1-2) antibody (PerkinElmer) in the presence of 5 mM EDTA in LANCE detection buffer (PerkinElmer) at a final concentration of 25 nM and 1 nM, respectively.
The assay reaction was initiated by the following: 2 µl of the mixture of 900 nM H3K4me3-biotin labeled peptide and 6 µM alpha-ketoglutaric acid with 2 µl of 11-point serial diluted inhibitor in 3% DMSO was added to each well of the plate, followed by the addition of 2 µl of 2.4 nM Jarid1B to initiate the reaction. The reaction mixture was incubated at room temperature for 30 minutes, and terminated by the addition of 6 µl of 5 mM EDTA in LANCE detection buffer containing 50 nM Phycolink Streptavidin-allophycocyanin and 2 nM Europium-anti-H3K4me1-2 antibody. Plates were read by EnVisionMultilabel Reader in TR-FRET mode (excitation at 320 nm, emission at 615 nm and 665 nm) after 1 hour incubation at room temperature. A ratio was calculated (665/615) for each well and fitted to determine inhibition constant (IC50).
For orientation: In TR-FRET formats the signal depends on donor and acceptor labels being close together.

T1 sequence (O15054 1043-1682 isoform O15054-1): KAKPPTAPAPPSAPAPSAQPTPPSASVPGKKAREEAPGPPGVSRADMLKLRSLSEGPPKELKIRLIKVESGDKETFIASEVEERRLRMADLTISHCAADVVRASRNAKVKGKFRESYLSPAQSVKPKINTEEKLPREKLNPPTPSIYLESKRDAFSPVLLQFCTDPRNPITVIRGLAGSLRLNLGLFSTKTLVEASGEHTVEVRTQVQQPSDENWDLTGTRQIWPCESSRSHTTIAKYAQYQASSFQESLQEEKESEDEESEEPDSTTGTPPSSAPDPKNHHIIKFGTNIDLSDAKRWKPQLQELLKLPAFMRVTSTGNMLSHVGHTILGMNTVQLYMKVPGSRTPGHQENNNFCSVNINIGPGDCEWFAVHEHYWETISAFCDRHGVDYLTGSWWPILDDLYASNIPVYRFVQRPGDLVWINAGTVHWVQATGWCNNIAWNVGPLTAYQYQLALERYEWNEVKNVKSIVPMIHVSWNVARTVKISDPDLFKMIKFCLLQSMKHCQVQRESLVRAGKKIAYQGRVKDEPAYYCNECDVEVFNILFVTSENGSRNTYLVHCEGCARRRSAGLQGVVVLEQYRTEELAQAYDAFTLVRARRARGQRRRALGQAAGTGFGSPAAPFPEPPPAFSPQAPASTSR

For the molecule `FC(F)(F)c1[nH]nnc1-c1ccnc(-c2cn(CCc3ccccc3Cl)cn2)c1` [Example 57], the figures for the IC50 in assay [1] and in assay [2] were greater than 10 µM and no more than 100 nM, respectively. For the molecule `FC(F)(F)c1[nH]nnc1-c1ccnc(-c2cn(CC3CCCc4ccccc43)cn2)c1` (centres unmarked) [Example 58, 2-{1-[(1,2,3,4-tetrahydronaphthalen-1-yl)methyl]-1H-imidazol-4-yl}-4-[5-(trifluoromethyl)-1H-1,2,3-triazol-4-yl]pyridine], the IC50 is greater than 10 µM in assay [1] and no more than 100 nM in assay [2]. `CCOc1ccccc1CCn1cnc(-c2cc(-c3nn[nH]c3C(F)(F)F)ccn2)c1` [Example 59]: the values for the IC50 in assay [1] and in assay [2] were greater than 10 µM and no more than 100 nM, respectively. As to `FC(F)(F)c1ccccc1CCn1cnc(-c2cc(-c3nn[nH]c3C(F)(F)F)ccn2)c1` [Example 60, 4-[5-(trifluoromethyl)-1H-1,2,3-triazol-4-yl]-2-(1-{2-[2-(trifluoromethyl)phenyl]ethyl}-1H-imidazol-4-yl)pyridine], the IC50 in assay [2] was no more than 100 nM.

`Fc1ccc(Cn2cnc(-c3cc(-c4nn[nH]c4C(F)(F)F)ccn3)c2)cc1` [Example 61, 2-{1-[(4-fluorophenyl)methyl]-1H-imidazol-4-yl}-4-[5-(trifluoromethyl)-1H-1,2,3-triazol-4-yl]pyridine]: the IC50 in assay [1] is greater than 10 µM; in assay [2], 100 to 1000 nM. Take `Fc1ccccc1Cn1cnc(-c2cc(-c3nn[nH]c3C(F)(F)F)ccn2)c1` [Example 62, 2-{1-[(2-fluoroprtenyl)methyl]-1H-imidazol-4-yl}-4-[5-(trifluoromethyl)-1H-1,2,3-triazol-4-yl]pyridine]: the results for the IC50 in assay [1] and in assay [2] were greater than 10 µM and 100 to 1000 nM, respectively. The matching figures for `FC(F)(F)c1[nH]nnc1-c1ccnc(-c2cn(Cc3ccc(Cl)cc3)cn2)c1` [Example 63, 2-{1-[(4-chlorophenyl)methyl]-1H-imidazol-4-yl}-4-[5-(trifluoromethyl)-1H-1,2,3-triazol-4-yl]pyridine]: greater than 10 µM and 100 to 1000 nM. With `FC(F)(F)c1[nH]nnc1-c1ccnc(-c2cn(Cc3ccccc3Cl)cn2)c1` [Example 64, 2-{1-[(2-chlorophenyl)methyl]-1H-imidazol-4-yl}-4-[5-(trifluoromethyl)-1H-1,2,3-triazol-4-yl]pyridine], the IC50 in assay [1] was greater than 10 µM; in assay [2], 100 to 1000 nM. As for `Cc1ccc(Cn2cnc(-c3cc(-c4nn[nH]c4C(F)(F)F)ccn3)c2)cc1` [Example 65, 2-{1-[(4-methylphenyl)methyl]-1H-imidazol-4-yl}-4-[5-(trifluoromethyl)-1H-1,2,3-triazol-4-yl]pyridine], the IC50 is greater than 10 µM in assay [1] and greater than 10000 nM in assay [2]. Turning to `Cc1ccccc1Cn1cnc(-c2cc(-c3nn[nH]c3C(F)(F)F)ccn2)c1` [Example 66, 2-{1-[(2-methylphenyl)methyl]-1H-imidazol-4-yl}-4-[5-(trifluoromethyl)-1H-1,2,3-triazol-4-yl]pyridine], the IC50 in assay [1] was greater than 10 µM; in assay [2] it was 100 to 1000 nM.

Consider `COc1ccc(Cn2cnc(-c3cc(-c4nn[nH]c4C(F)(F)F)ccn3)c2)cc1` [Example 67, 2-{1-[(4-methoxyphenyl)methyl]-1H-imidazol-4-yl}-4-[5-(trifluoromethyl)-1H-1,2,3-triazol-4-yl]pyridine], for which the IC50 in assay [1] was greater than 10 µM; in assay [2], 100 to 1000 nM. The matching figures for `Fc1ccc(Cn2cnc(-c3cc(-c4nn[nH]c4C(F)(F)F)ccn3)c2)c(F)c1` [Example 68, 2-{1-[(2,4-difluorophenyl)methyl]-1H-imidazol-4-yl}-4-[5-(trifluoromethyl)-1H-1,2,3-triazol-4-yl]pyridine]: greater than 10 µM and 100 to 1000 nM. Consider `Fc1cccc(F)c1Cn1cnc(-c2cc(-c3nn[nH]c3C(F)(F)F)ccn2)c1` [Example 69, 2-{1-[(2,6-difluorophenyl)methyl]-1H-imidazol-4-yl}-4-[5-(trifluoromethyl)-1H-1,2,3-triazol-4-yl]pyridine], for which the IC50 in assay [1] was greater than 10 µM; in assay [2], 100 to 1000 nM.

`Cc1cc(F)ccc1Cn1cnc(-c2cc(-c3nn[nH]c3C(F)(F)F)ccn2)c1` [Example 70, 2-{1-[(4-fluoro-2-methylphenyl)methyl]-1H-imidazol-4-yl}-4-[5-(trifluoromethyl)-1H-1,2,3-triazol-4-yl]pyridine]: the IC50 is greater than 10 µM in assay [1] and 100 to 1000 nM in assay [2]. The molecule `CC(C)C(c1ccccc1)n1cnc(-c2cc(-c3nn[nH]c3C(F)(F)F)ccn2)c1` (centres unmarked) [Example 75, 2-[1-(2-methyl-1-phenylpropyl)-1H-imidazol-4-yl]-4-[5-(trifluoromethyl)-1H-1,2,3-triazol-4-yl]pyridine] registered an IC50 in assay [1] greater than 10 µM. Regarding `FC(F)(F)c1[nH]nnc1-c1ccnc(-c2cn(CC3CCc4ccccc43)cn2)c1` (centres unmarked) [Example 83, 2-{1-[(2,3-dihydro-1H-inden-1-yl)methyl]-1H-imidazol-4-yl}-4-[5-(trifluoromethyl)-1H-1,2,3-triazol-4-yl]pyridine], in assay [2], the IC50 was no more than 100 nM.

Regarding `Fc1ccccc1CCn1cnc(-c2cc(-c3nn[nH]c3C(F)(F)F)ccn2)c1` [Example 84, 2-{1-[2-(2-fluorophenyl)ethyl]-1H-imidazol-4-yl}-4-[5-(trifluoromethyl)-1H-1,2,3-triazol-4-yl]pyridine], the IC50 in assay [2] was no more than 100 nM. As for `Fc1ccc2c(c1)C(n1cnc(-c3cc(-c4nn[nH]c4C(F)(F)F)ccn3)c1)CC2` (centres unmarked) [Example 85, 2-[1-(6-fluoro-2,3-dihydro-1H-inden-1-yl)-1H-imidazol-4-yl]-4-[5-(trifluoromethyl)-1H-1,2,3-triazol-4-yl]pyridine], in assay [2], the IC50 was no more than 100 nM. In turn, `Fc1cccc2c1CCCC2Cn1cnc(-c2cc(-c3nn[nH]c3C(F)(F)F)ccn2)c1` (centres unmarked) [Example 99, 2-{1-[(5-fluoro-1,2,3,4-tetrahydronaphthalen-1-yl)methyl]-1H-imidazol-4-yl}-4-[5-(trifluoromethyl)-1H-1,2,3-triazol-4-yl]pyridine] had an IC50 in assay [1] greater than 10 µM.
